Results: PubChem BioAssay AID1418 (Emory University Molecular Libraries Screening Center, 2008)
The source made the active and inactive calls. How the calls were made is not given here.

Each compound was assayed against Induced myeloid leukemia cell differentiation protein Mcl-1 (Homo sapiens) (UniProt Q07820) (assay: blockers of Bid binding to Mcl-1 – biochemical, TR-FRET, dose response (AID 1418)). Conditions: Mcl-1/Bid peptide binding, TR-FRET (europium/Dy647), 2 hr.
Chain of Induced myeloid leukemia cell differentiation protein Mcl-1 (Homo sapiens) (Q07820 whole entry, looked up): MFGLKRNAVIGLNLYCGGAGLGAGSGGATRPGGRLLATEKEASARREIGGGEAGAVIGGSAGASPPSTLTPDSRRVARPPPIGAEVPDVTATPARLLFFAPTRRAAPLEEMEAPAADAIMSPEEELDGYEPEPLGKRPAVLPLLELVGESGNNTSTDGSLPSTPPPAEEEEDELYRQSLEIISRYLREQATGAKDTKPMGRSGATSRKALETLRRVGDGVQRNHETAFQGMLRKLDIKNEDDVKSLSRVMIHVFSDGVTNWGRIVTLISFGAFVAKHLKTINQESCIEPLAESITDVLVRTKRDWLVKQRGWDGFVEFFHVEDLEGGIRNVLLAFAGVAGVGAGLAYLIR

Structure (SMILES) | IC50
O=[N+]([O-])c1ccc2c(c1)ncn2-c1ccccc1 | > 54 µM (inactive)
CCCN(CCC)CCNC(=O)C1CC(=O)N(c2ccc(OC)cc2)C1c1ccc(OC)cc1 (configuration not stated) | > 54 µM (inactive)
CC(=O)c1cccc(NC(=O)C2CCN(C(=O)c3ccc([N+](=O)[O-])cc3)CC2)c1 | > 54 µM (inactive)
O=C(CN1C(=O)S/C(=C\c2ccc(Cl)cc2)C1=O)NNC(=O)c1ccccc1O | 7.45 µM
COc1ccc(-c2csc(NC(=S)NC(=O)/C=C/c3ccco3)n2)cc1OC | > 54 µM (inactive)
COc1cccc(OC)c1C(=O)N1CCN(c2ccccn2)CC1 | > 54 µM (inactive)
CC(C(=O)O)n1nc2ccccc2n1 (configuration not stated) | > 54 µM (inactive)
Nc1cccc(C(=O)OCC(=O)Nc2cccc3c2C(=O)c2ccccc2C3=O)c1 | 2.38 µM
CCOC(=O)N1CCN(c2nc(C)c3c(n2)CCCC3=O)CC1 | > 54 µM (inactive)
Cc1cc(NC(=O)c2noc3c2CCc2ccccc2-3)no1 | > 54 µM (inactive)
COC(=O)c1ccccc1S(=O)(=O)N1CCn2cccc2C1C (configuration not stated) | > 54 µM (inactive)
CSc1cccc(NC(=O)CN(C)S(=O)(=O)c2ccccc2)c1 | > 54 µM (inactive)
Cc1cccc(-n2c(SCC(=O)Nc3nnc(C)s3)nnc2-c2ccoc2C)c1 | > 54 µM (inactive)
O=C1C(C=NCc2ccncc2)=C(O)c2ccccc21 | > 54 µM (inactive)
COc1ccccc1NC(=O)CSc1nnnn1-c1ccc2c(c1)OCO2 | > 54 µM (inactive)
O=C(NCC1CCCO1)c1ccc(CSCc2cccc(F)c2)o1 (configuration not stated) | > 54 µM (inactive)
O=C1c2ccccc2C(=O)C1Cc1cccc2ccccc12 | 8.94 µM
Cc1c([N+](=O)[O-])c(C(=O)Nc2ccc3c(c2)OCCO3)nn1C | > 54 µM (inactive)
COc1cc(/C=C2/SC(=S)NC2=O)ccc1OS(=O)(=O)c1ccc(C)cc1 | 9.94 µM
CCCC(=O)Nc1ccc2oc(-c3cccnc3)nc2c1 | > 54 µM (inactive)
COc1ccc(CCNC(=O)COC(=O)Cc2ccccc2)cc1 | > 54 µM (inactive)
Cc1ccc(S(=O)(=O)CCNC(=O)Cc2ccccc2)cc1 | > 54 µM (inactive)
c1coc(-c2nc3c4c5c(sc4ncn3n2)CCCC5)c1 | > 54 µM (inactive)
COc1cc(/C=C(/C#N)c2nc3ccccc3c(=O)[nH]2)ccc1O | 1.15 µM
CCOC(=O)c1c(/N=C/C2C(=O)NC(=S)NC2=O)sc(C)c1C | 2.08 µM

Structure (SMILES) | IC50
COc1ccccc1C1C(C#N)=C(N)Oc2c1c(-c1ccccc1)nn2-c1ccccc1 (configuration not stated) | > 54 µM (inactive)
COc1ccc2c(c1)c(=O)oc1cc3oc(C)c(C)c3cc12 | 17 µM
Cc1cccc(N=C2NC(=O)/C(=C/C=C/c3ccco3)S2)c1C | > 54 µM (inactive)
COc1ccc(-c2nc3ccccc3c(=O)n2CCOc2cccc(C)c2C)cc1 | > 54 µM (inactive)
NC(=S)n1[nH]c(-c2ccc([N+](=O)[O-])cc2)c(N=Nc2cccc(Cl)c2)c1=O | 0.68 µM
Cc1ccc2nc(NC(=O)c3cccc(-c4cc5ccccc5oc4=O)c3)sc2c1 | 0.99 µM
O=c1c2ccccc2nc2n1CCC2 | 0.52 µM
C=CCc1ccc(OCCOCCOc2cccc3ccc(C)nc23)c(OC)c1 | > 54 µM (inactive)
Cn1nc(-c2ccc(Cl)cc2)c2cc(C(=O)NCCN3CCOCC3)sc21 | > 54 µM (inactive)
O=C(O)[C@@H](c1ccccc1)N1Cc2ccccc2C1=O | 0.54 µM
O=C(O)Cn1cnc2c(=S)nc[nH]c21 | > 54 µM (inactive)
Cc1ccc(-n2c(C)n[nH]c2=S)cc1C | > 54 µM (inactive)
CCS(=O)(=O)c1ccc(S(=O)(=O)CC)s1 | > 54 µM (inactive)
CCCOc1cccc(CN2CCCCC2c2cccnc2)c1 (configuration not stated) | > 54 µM (inactive)
CCO[C@@H]1OC(C(=O)N2CCN(Cc3ccccc3)CC2)=C[C@H](C2CC2)[C@H]1CCCO | > 54 µM (inactive)
O=C(Cc1cccs1)N1CCN(S(=O)(=O)c2ccccc2)CC1 | > 54 µM (inactive)
CN1CCN(Cc2cccc(Oc3ccc(Cl)cc3)c2)CC1 | > 54 µM (inactive)
COc1ccc(C)cc1S(=O)(=O)N(C)CC(=O)NCc1ccco1 | > 54 µM (inactive)
Cc1ccc(S(=O)(=O)/N=C2/C=C(Sc3ncn[nH]3)C(=O)c3ccccc32)cc1 | 2.73 µM
CNC(=O)C(=O)NCCN1CCN(C(=O)c2ccc([N+](=O)[O-])cc2)CC1 | > 54 µM (inactive)
CCOc1cc(N2CCOCC2)c(OCC)cc1NC(=O)c1cc(-c2ccco2)nc2ccccc12 | 12.5 µM
CN(C)S(=O)(=O)c1cccc(NC(=O)COC(=O)c2cc3ccccc3oc2=O)c1 | > 54 µM (inactive)
COC(=O)c1ccc(Oc2coc3cc(OCc4ccc([N+](=O)[O-])cc4)ccc3c2=O)cc1 | > 54 µM (inactive)
Cc1sc2ncnc(OCC(=O)Nc3ccc4c(c3)OCCO4)c2c1C | > 54 µM (inactive)
COc1cc(CNc2ccc(O)cc2)cc(Br)c1OCc1ccccc1F | > 54 µM (inactive)

Structure (SMILES) | IC50
O=C(O)c1cc(-c2ccc(/C=C3/SC(=S)N(Cc4ccccc4)C3=O)o2)ccc1Cl | 1.7 µM
O=C(O)[C@H](Cc1ccccc1)N1Cc2ccccc2C1=O | 22.3 µM
Cc1csc(CCc2nc(C)cs2)n1 | > 54 µM (inactive)
COC(=O)C(Cc1csc2ccc(Cl)cc12)NC(=O)c1ccc(Cl)cc1 (configuration not stated) | > 54 µM (inactive)
O=C1NC(=O)N(c2ccc(F)cc2)C(=O)/C1=C/c1ccc2c(c1)CCCN2Cc1ccccc1 | 0.79 µM
Cc1ccc(CNc2nc(C)nc3sc4c(c23)CCC4)cc1 | > 54 µM (inactive)
C/C(C/C(C)=C1/SC(=S)NC1=O)=C1\SC(=S)NC1=O | 1.25 µM
O=C(Oc1cccc(N2C(=O)C3C4c5ccccc5C(c5ccccc54)C3C2=O)c1)c1ccco1 (configuration not stated) | > 54 µM (inactive)
O=C(COc1ccc2c(c1)CCC2)N1CCc2ccccc21 | > 54 µM (inactive)
N#Cc1ccccc1Cn1c(-c2cscn2)nc2ccccc21 | > 54 µM (inactive)
CC1(C)CC(=O)C(C(c2cccnc2)C2C(=O)CC(C)(C)CC2=O)C(=O)C1 | > 54 µM (inactive)
Cc1ccc(COc2ccc(C(=O)NN)cc2)cc1 | > 54 µM (inactive)
CCN(CCNC(=O)CN1CCN(Cc2ccc(Cl)cc2)C1=O)c1ccccc1 | > 54 µM (inactive)
COC(=O)/C(=N/Nc1ccccc1)N1CCCc2ccccc21 | > 54 µM (inactive)
N=C1/C(=C\c2ccc(-c3cccc(C(=O)O)c3)o2)C(=O)N=C2SC=C(c3ccccc3)N12 | 4.64 µM
O=c1c(CN2CCN(Cc3ccccc3)CC2)coc2ccc(Cl)cc12 | > 54 µM (inactive)
C#CCOCCOCCOCCNc1nc(N2CCN(C(=O)[C@H](CCCCN)n3cc(C(N)[C@H](C)CC)nn3)CC2)nc(N2CCN(C(=O)[C@H](CCC(=O)O)n3cc(C(N)[C@H](C)CC)nn3)CC2)n1 (some centres not stated) | 1.93 µM
CCOc1ccc(-c2ccc(/C=C3/C(=N)N4C(C)=CSC4=NC3=O)o2)c([N+](=O)[O-])c1 | 0.83 µM
CCN(CC)c1ccc(NC(=O)Cn2ncc3c(C)n(Cc4ccccc4F)c(C)c3c2=O)c(C)c1 | 0.53 µM
Cc1ccc2oc(C(F)(F)C(F)F)cc(=O)c2c1 | inactive
C=CCn1c(O)c(N=NC(=O)CNC(=O)/C=C/c2ccc(OC)cc2)c2ccccc21 | > 54 µM (inactive)
COc1cc(C(=O)Nc2ccc3c(c2)C(=O)c2ccccc2C3=O)cc(OC)c1OC | 9.01 µM
CC1=NN(c2ccccc2)C(=O)/C1=C\c1cn(-c2ccccc2)nc1C | > 54 µM (inactive)
O=C(CSc1ccccn1)Nc1ccc2c(c1)C(=O)c1ccccc1C2=O | 1.72 µM
C#CCOCCOCCOCCNc1nc(N2CCN(C(=O)[C@H](CCCCN)n3cc([C@@H](N)C(C)CC)nn3)CC2)nc(N2CCN(C(=O)[C@H](CCCCN)n3cc([C@@H](N)CO)nn3)CC2)n1 (some centres not stated) | 0.63 µM

Structure (SMILES) | IC50
CCOC(=O)NC(=O)/C(C#N)=C/c1ccc(N(C)C)cc1 | > 54 µM (inactive)
COc1ccc(C2(C)NC(=O)N(CC(=O)NCCC3=CCCCC3)C2=O)cc1OC (configuration not stated) | > 54 µM (inactive)
O=S(=O)(c1ccc(NC(=S)NCc2cccnc2)cc1)N1CCCCC1 | > 54 µM (inactive)
O=C(Cn1nc(C(F)(F)F)c2c1CCCC2)NCc1ccco1 | > 54 µM (inactive)
O=C1/C(=C/C=C/c2ccco2)SC(=S)N1NS(=O)(=O)c1ccccc1 | 2.31 µM
O=C(O)C[C@@H]1C(=O)O[C@@H]2C(COC(=O)c3cc(O)c(O)c(O)c3)O[C@@H](OC(=O)c3cc(O)c(O)c(O)c3)[C@@H](OC(=O)c3cc(O)c(O)c4c3[C@H]1[C@H](O)C(=O)O4)[C@H]2OC(=O)c1cc(O)c(O)c(O)c1 (some centres not stated) | 0.95 µM
O=C(COc1ccc(/C=N/NC(=O)c2cc3ccccc3o2)cc1Br)Nc1ccccc1 | 0.61 µM
O=C(O)c1ccc(NS(=O)(=O)c2cccc3nsnc23)cc1 | > 54 µM (inactive)
Cc1ccc(-c2nn(CC(=O)NCc3cc(-c4nn(C)c(=O)c5ccccc45)ccc3C)c(=O)c3ccccc23)cc1 | 0.85 µM
C/C(=N\NC(=O)c1cc(-c2cccc([N+](=O)[O-])c2)n[nH]1)c1ccccc1O | 29 µM
CC(=O)c1ccc(NC(=S)NNC(=O)c2ccncc2)cc1 | > 54 µM (inactive)
CC(/C=C1\SC(=S)N(NS(=O)(=O)c2ccc(C)cc2)C1=O)=C\c1ccccc1 | 25 µM
O=C(Cn1c2ccccc2c(=O)c2ccccc21)N/N=C/c1cc([N+](=O)[O-])ccc1N1CCCCC1 | 0.65 µM
O=C(CCCN1C(=O)c2ccccc2C1=O)Nc1ccccc1 | > 54 µM (inactive)
Cc1ccc(S(=O)(=O)/N=C(\CCl)N2CCOCC2)cc1 | > 54 µM (inactive)
CCOC(=O)c1c(-c2ccco2)csc1NC(=O)CSc1nnc(N)s1 | > 54 µM (inactive)
CC(C)NC(=O)c1ccc(COCC(F)(F)F)cc1 | > 54 µM (inactive)
O=[N+]([O-])c1ccc(-c2nc3ccc([N+](=O)[O-])cc3[nH]2)cc1 | 13 µM
CC(C)N(C(=O)c1sc2cc([N+](=O)[O-])ccc2c1Cl)C(C)C | > 54 µM (inactive)
Cc1cc(N)n(-c2ccc3ccccc3c2)n1 | > 54 µM (inactive)
C=CCc1cccc2cc(C(=O)Nc3ccc(S(=O)(=O)Nc4nnc(CC)s4)cc3)c(=O)oc12 | > 54 µM (inactive)
COc1ccc(NC(=S)NNc2ccc(S(=O)(=O)Nc3ccccc3C(=O)O)cc2[N+](=O)[O-])cc1 | 22.3 µM
